Results on eleven compounds are retold here after patent US11957687B2 (REGENERON PHARMACEUTICALS, INC., priority 2019, dated 2024).

The target in one data set is HSD17B13 (Homo sapiens (Human), UniProt Q7Z5P4). Briefly: HSD17B13 enzymatic inhibition assay (150 nM or 50 nM HSD17B13). It counts as biochemical. Conditions: 50 nM HSD17B13; read-out: Inhibition of 50 nM of HSD17B13 IC50.
The target in another data set is HSD17B1 (Homo sapiens (Human), UniProt P14061). As to the kind of experiment: HSD17B1 enzymatic blocking assay. It counts as biochemical. The settings on record: 25 μM Estradiol, 500 μM NAD; read-out: Inhibition of HSD17B1 IC50. An outline of the steps:
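Activity followed as NADH formed on estradiol oxidation, read by NADH-Glo luminescence after 1 h detection in the dark at room temperature. Compounds preincubated with enzyme 30 min at room temperature; 0.5% DMSO and no-substrate controls. IC50 fitted from luminescence.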

In a further data set the target is HSD17B2 (Homo sapiens (Human), UniProt P37059). As to the kind of experiment: HSD17B2 enzymatic blocking assay. It counts as biochemical. The settings on record: 1.8 μM Estradiol, 650 μM NAD; read-out: Inhibition of HSD17B2 IC50. An outline of the steps: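 Mammalian-expressed enzyme at 2 ng/μL in 50 mM Tris-HCl pH 7.5 with detergents/BSA, preincubated 15 min at 20° C. with compound (10-point titration). Reaction with 1.8 μM estradiol and 650 μM NAD ran 45 min at 20° C.; NADH measured by NADH-Glo luminescence and IC50 derived.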
Sequence of HSD17B2 (P37059 other isoform, or with tags, fused parts or gaps): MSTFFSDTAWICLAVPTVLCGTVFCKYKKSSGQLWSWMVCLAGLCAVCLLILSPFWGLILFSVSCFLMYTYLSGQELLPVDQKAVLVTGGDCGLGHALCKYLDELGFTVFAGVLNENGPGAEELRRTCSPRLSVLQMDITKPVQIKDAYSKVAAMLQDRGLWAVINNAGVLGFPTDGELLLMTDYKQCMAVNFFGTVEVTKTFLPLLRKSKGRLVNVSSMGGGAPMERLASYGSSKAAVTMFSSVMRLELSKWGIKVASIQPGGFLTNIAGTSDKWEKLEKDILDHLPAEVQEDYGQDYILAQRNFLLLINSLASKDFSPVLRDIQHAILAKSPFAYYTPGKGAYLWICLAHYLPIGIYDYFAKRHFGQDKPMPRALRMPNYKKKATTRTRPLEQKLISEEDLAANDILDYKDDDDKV

A further data set deals with HSD17B4 (Homo sapiens (Human), UniProt P51659). As to the kind of experiment: HSD17B4 enzymatic blocking assay. It counts as biochemical. Conditions: 23.46 μM Estradiol, 1500 μM NAD; read-out: Inhibition of HSD17B4 IC50. How it is done: To screen compounds of the disclosure for their ability to block HSD17B4 function, an enzymatic blocking assay was performed. For the assay, HSD17B4 activity was measured by detecting NADH formation from oxidation of Estradiol using a NADH Glo luminescence assay (Promega, #Cat. No. G9062). Compounds of the disclosure were evaluated in a dose titration assay where the compounds were titrated at 10-point dose curve using an Echo-555 liquid handling dispenser. HSD17B4 (SEQ ID NO: 4, expressed in mammalian cells) was added at a final concentration of 2.5 ng/μL in a buffer containing 50 mM Tris-HCl, pH 7.5, Pluronic F-127 0.05%, Tween20 0.01%, BSA 0.01%, into a low volume white 384-well assay plate. Compounds were incubated with the enzyme for 15 min at 20° C. The assay reaction was then initiated by addition of 23.46 μM Estradiol substrate (Sigma, catalog #E2758-250MG, CAS: 50-28-2) and 1500 μM NAD co-factor, and the reaction mixture was incubated for 45 min at 20° C. DMSO at a concentration of 0.5% was used as a negative control and a ‘no substrate’ control was used a positive control in the assay. Detection reagent was then added as per manufacturer's instructions, and the plate was subsequently incubated in the dark for 1 hour at room temperature, NADH generated was detected in the luminescence mode on the Envision Perkin Elmer plate reader. The IC50 values were determined using Dotmatics analysis software.
Sequence of HSD17B4 (P51659 other isoform, or with tags, fused parts or gaps): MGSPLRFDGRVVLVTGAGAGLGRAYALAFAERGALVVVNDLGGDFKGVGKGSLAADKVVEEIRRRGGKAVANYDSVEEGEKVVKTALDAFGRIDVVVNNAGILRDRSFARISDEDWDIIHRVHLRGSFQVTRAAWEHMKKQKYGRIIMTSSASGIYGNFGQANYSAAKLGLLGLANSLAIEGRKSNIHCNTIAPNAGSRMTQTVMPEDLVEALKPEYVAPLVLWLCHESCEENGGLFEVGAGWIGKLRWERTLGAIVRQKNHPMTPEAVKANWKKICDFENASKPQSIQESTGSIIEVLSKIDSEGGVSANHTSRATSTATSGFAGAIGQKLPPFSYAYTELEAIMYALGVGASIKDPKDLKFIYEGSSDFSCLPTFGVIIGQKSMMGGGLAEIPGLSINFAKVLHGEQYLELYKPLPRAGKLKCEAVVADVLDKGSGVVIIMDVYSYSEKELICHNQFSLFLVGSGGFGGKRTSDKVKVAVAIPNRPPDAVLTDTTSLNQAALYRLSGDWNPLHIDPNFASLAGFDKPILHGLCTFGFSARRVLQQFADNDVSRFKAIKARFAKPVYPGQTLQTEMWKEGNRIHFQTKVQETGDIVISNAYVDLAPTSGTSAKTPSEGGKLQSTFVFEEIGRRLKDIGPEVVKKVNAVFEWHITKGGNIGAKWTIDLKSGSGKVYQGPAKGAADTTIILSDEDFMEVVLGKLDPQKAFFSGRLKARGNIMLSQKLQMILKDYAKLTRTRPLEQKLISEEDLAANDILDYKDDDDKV

The target of another data set is HSD17B10 (Homo sapiens (Human), UniProt Q99714). Briefly: HSD17B10 enzymatic blocking assay. Conditions: 25 μM Estradiol, 500 μM NAD; read-out: Inhibition of HSD17B10 IC50. It counts as biochemical. How it is done: To screen compounds of the disclosure for their ability to block HSD17B10 function, an enzymatic blocking assay was performed. For the assay, HSD17B10 activity was measured by detecting NADH formation from oxidation of Estradiol using a NADH Glo luminescence assay (Promega, #Cat. No. G9062). Compounds of the disclosure were evaluated in a dose titration assay where the compounds were titrated at 10-point dose curve using an Echo-555 liquid handling dispenser. HSD17B10 (Seq. ID NO: 5, expressed in mammalian cells) was added at a final concentration of 31.25 ng/well in a buffer containing 0.2M Tris-HCl, pH 7.5, into a low volume white 384-well assay plate. Compounds were incubated with the enzyme for 30 minutes at room temperature. The assay reaction was then initiated by addition of 25 μM Estradiol substrate (Sigma, catalog #E2758-250MG, CAS: 50-28-2) and 500 μM NAD co-factor, and the reaction mixture was incubated for 3 hours at room temperature. DMSO at a concentration of 0.5% was used as a negative control and a ‘no substrate’ control was used a positive control in the assay. Detection reagent was then added as per manufacturer's instructions, and the plate was subsequently incubated in the dark for 1 hour at room temperature, NADH generated was detected in the luminescence mode on the Envision Perkin Elmer plate reader. The IC50 values were determined using Dotmatics analysis software.
Sequence of HSD17B10 (Q99714 other isoform, or with tags, fused parts or gaps): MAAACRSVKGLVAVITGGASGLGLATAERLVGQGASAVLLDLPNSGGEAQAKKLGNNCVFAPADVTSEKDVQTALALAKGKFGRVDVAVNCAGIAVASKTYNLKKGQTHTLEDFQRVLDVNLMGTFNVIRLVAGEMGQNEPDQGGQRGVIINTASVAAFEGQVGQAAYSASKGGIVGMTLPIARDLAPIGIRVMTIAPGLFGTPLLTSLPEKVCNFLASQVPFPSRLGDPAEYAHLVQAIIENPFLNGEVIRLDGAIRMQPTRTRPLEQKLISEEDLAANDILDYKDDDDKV

Data set [1] can be described thus: Microsome stability assay, human liver microsomes. It counts as in vitro ADME. The settings on record: 1 μM compound, 0.5 mg/mL microsomal protein; for microsomal CLint at 1 h, 1 µM / half-life at 1 h, 1 µM / microsomal CLint at 1 μM / half-life at 1 μM: human, human liver microsomes, pooled, NADPH, 37° C.; for microsomal CLint at 1 h, 1 µM / microsomal CLint at 1 μM: read-out: Microsome Stability Human liver microsomes Cl; for half-life at 1 h, 1 µM / half-life at 1 μM: read-out: Microsome Stability Human liver microsomes T½. In outline: (§1)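 Compound at 1 μM incubated at 37° C with pooled human or mouse liver microsomes (0.5 mg/mL protein) plus NADPH regenerating system, sampled at 0–60 min; a 60-min no-NADPH incubation also included. Single replicate; LC/MS/MS disappearance from analyte/internal standard peak area ratios, without standard curve.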
For orientation: Liver microsomes are a subcellular fraction often used to study metabolism.

Data set [2] can be described thus: Microsome stability assay, mouse liver microsomes. It counts as in vitro ADME. Conditions: 1 μM compound, 0.5 mg/mL microsomal protein. In outline: as §1
[3] abbreviates: mouse, mouse liver microsomes, pooled, NADPH, 37° C., read-out: Microsome Stability Mouse liver microsomes Cl.
Setting [4] is: mouse, mouse liver microsomes, pooled, NADPH, 37° C., read-out: Microsome Stability Mouse liver microsomes T½.

Sequence of HSD17B1 (P14061 other isoform, or with tags, fused parts or gaps): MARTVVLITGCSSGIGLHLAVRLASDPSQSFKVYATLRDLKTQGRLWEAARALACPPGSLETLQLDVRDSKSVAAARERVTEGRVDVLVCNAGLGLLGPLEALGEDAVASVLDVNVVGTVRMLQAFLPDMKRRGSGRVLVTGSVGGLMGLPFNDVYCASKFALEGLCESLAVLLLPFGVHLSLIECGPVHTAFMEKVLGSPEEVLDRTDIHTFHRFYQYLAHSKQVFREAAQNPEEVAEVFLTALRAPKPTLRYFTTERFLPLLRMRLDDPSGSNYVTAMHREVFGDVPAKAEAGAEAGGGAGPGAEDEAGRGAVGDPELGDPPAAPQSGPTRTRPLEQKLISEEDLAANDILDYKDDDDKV
Sequence of HSD17B13 (Q7Z5P4 other isoform, or with tags, fused parts or gaps): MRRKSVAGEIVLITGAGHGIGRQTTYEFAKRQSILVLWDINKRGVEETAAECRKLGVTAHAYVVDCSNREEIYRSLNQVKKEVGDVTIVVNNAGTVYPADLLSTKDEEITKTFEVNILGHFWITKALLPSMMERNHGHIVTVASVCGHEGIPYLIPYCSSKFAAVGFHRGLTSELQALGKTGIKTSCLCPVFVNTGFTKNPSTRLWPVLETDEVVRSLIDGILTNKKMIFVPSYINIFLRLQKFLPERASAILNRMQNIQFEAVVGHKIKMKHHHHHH

One may read the IC50 as the concentration that inhibits the measured activity by half. Turning to `O=C(NC1c2ccccc2Oc2cc(Cl)ccc21)c1ccc(C(F)(F)F)[nH]c1=O` (centres unmarked) [Compound 15A, N-(3-chloro-9H-xanthen-9-yl)-2-oxo-6-(trifluoromethyl)-1,2-dihydropyridine-3-carboxamide], the IC50 on HSD17B13 is 0.16 µM; at HSD17B1, 3.9 µM; at HSD17B2 it was 6.33 µM; on HSD17B4, above 100 µM; at HSD17B10, above 30 µM.

`Cc1ccc2c(c1)Oc1cccc(C)c1C2NC(=O)c1ccc(C(F)(F)F)[nH]c1=O` (centres unmarked) [Compound 53, N-(1,6-dimethyl-9H-xanthen-9-yl)-2-oxo-6-(trifluoromethyl)-1,2-dihydropyridine-3-carboxamide]: the IC50 was 0.31 µM on HSD17B13; 3.69 µM at HSD17B1; 10.7 µM on HSD17B2; 47.1 µM on HSD17B4; above 30 µM at HSD17B10.

As for `Cc1ccc2c(c1)Oc1ccccc1C2NC(=O)c1ccc(C(F)(F)F)[nH]c1=O` (centres unmarked) [Compound 55, N-(3-methyl-9H-xanthen-9-yl)-2-oxo-6-(trifluoromethyl)-1,2-dihydropyridine-3-carboxamide], the IC50 on HSD17B13 is 0.18 µM; on HSD17B1, 4.65 µM; on HSD17B2, 9.15 µM; at HSD17B4, above 100 µM; on HSD17B10 it was above 30 µM.

For the compound `O=C(NC(c1ccccc1)c1ccc2c(c1)CCCC2)c1ccc(C(F)(F)F)[nH]c1=O` (centres unmarked) [Compound 80, N-(phenyl(5,6,7,8-tetrahydronaphthalen-2-yl)methyl)-2-oxo-6-(trifluoromethyl)-1,2-dihydropyridine-3-carboxamide], the IC50 was 0.36 µM on HSD17B13; 3.65 µM on HSD17B1; 8.91 µM at HSD17B2; 48.7 µM on HSD17B4; above 30 µM at HSD17B10.

For the compound `O=C(NC(c1ccccc1)c1ccc(-c2cccnc2)cc1)c1ccc(C(F)(F)F)[nH]c1=O` (centres unmarked) [Compound 93, N-(phenyl(4-(pyridin-3-yl)phenyl)methyl)-2-oxo-6-(trifluoromethyl)-1,2-dihydropyridine-3-carboxamide], the IC50 on HSD17B13 is 0.6 µM; at HSD17B1, 15.6 µM; at HSD17B2 it was 10.7 µM; at HSD17B4, 66.2 µM; at HSD17B10, above 30 µM.

Turning to `O=C(NC(c1ccccc1)c1ccc2c(c1)COC2)c1ccc(C(F)(F)F)[nH]c1=O` (centres unmarked) [Compound 94, N-((1,3-dihydroisobenzofuran-5-yl)(phenyl)methyl)-2-oxo-6-(trifluoromethyl)-1,2-dihydropyridine-3-carboxamide], the IC50 at HSD17B1 is 11.3 µM; at HSD17B2, 18.8 µM; at HSD17B4, 96.6 µM; on HSD17B10, above 30 µM.

On to `CCCC1Cc2cc(C)ccc2C(NC(=O)c2ccc(C(F)(F)F)[nH]c2=O)C1` (centres unmarked) [Compound 387, N-(6-methyl-3-propyl-1,2,3,4-tetrahydronaphthalen-1-yl)-2-oxo-6-(trifluoromethyl)-1,2-dihydropyridine-3-carboxamide], for which the IC50 on HSD17B13 is 0.05 µM; on HSD17B1 it was above 30 µM; on HSD17B2, 27.7 µM. Also, in data set [1], the “Microsome Stability Human liver microsomes % Remaining @60 min” value is on record as 2.70%. For the same compound, the microsomal CLint at 1 h, 1 µM in data set [1] was found to be 112 µL/min/mg; in data set [2] (setting [3]), 52 µL/min/mg. Besides, the half-life at 1 h, 1 µM worked out at 12.3 min in data set [1] and 26.6 min in data set [2] (setting [4]). In addition, the “Microsome Stability Mouse liver microsomes % Remaining @60 min” value in data set [2] was 21.60%.

As to `CCC1Cc2cc(C)ccc2C(NC(=O)c2ccc(C(F)(F)F)[nH]c2=O)C1` (centres unmarked) [Compound 388, N-(3-ethyl-6-methyl-1,2,3,4-tetrahydronaphthalen-1-yl)-2-oxo-6-(trifluoromethyl)-1,2-dihydropyridine-3-carboxamide], the IC50 at HSD17B13 was 0.05 µM; on HSD17B1, above 30 µM; on HSD17B2 it was 25.8 µM. For the same compound, the “Microsome Stability Human liver microsomes % Remaining @60 min” value in data set [1] was 10%. For the same compound, the values for the microsomal CLint at 1 h, 1 µM in data set [1] and in data set [2] (setting [3]) were 150 µL/min/mg and 47.4 µL/min/mg, respectively. Also, the half-life at 1 h, 1 µM was 9.26 min in data set [1] and 29.2 min in data set [2] (setting [4]). For the same compound, the “Microsome Stability Mouse liver microsomes % Remaining @60 min” value in data set [2] is recorded as 24.60%.

On to `Cc1ccc2c(c1)OCCC2NC(=O)c1ccc(C(F)(F)F)[nH]c1=O` (centres unmarked) [Compound 441, N-(7-methylchroman-4-yl)-2-oxo-6-(trifluoromethyl)-1,2-dihydropyridine-3-carboxamide], for which the IC50 at HSD17B13 is 2.19 µM; on HSD17B1 it was above 30 µM; at HSD17B2, 11.2 µM. The “Microsome Stability Human liver microsomes % Remaining @60 min” value in data set [1] was determined as 45%. Besides, the microsomal CLint at 1 μM in data set [1] was 26.4 µL/min/mg. Moreover, in data set [1], the half-life at 1 μM is 52.5 min. In data set [2], the “Microsome Stability Mouse liver microsomes % Remaining @60 min” value is on record as 74%. In data set [2] (setting [3]), the microsomal CLint at 1 h, 1 µM was found to be 10.2 µL/min/mg. Further, the half-life at 1 h, 1 µM in data set [2] (setting [4]) worked out at 135 min.

Consider `Cc1cccc(C(NC(=O)c2ccc(C(F)(F)F)[nH]c2=O)c2ccccc2)c1` (centres unmarked) [Compound 490, 2-oxo-N-(phenyl(m-tolyl)methyl)-6-(trifluoromethyl)-1,2-dihydropyridine-3-carboxamide], for which the figures for the IC50 at HSD17B13, at HSD17B1 and at HSD17B2 were 0.59 µM, above 30 µM and 16.1 µM, respectively. The “Microsome Stability Human liver microsomes % Remaining @60 min” value in data set [1] is listed as 1%. For the same compound, the microsomal CLint at 1 h, 1 µM in data set [1] amounted to 203 µL/min/mg; in data set [2] (setting [3]), 140 µL/min/mg. In addition, the half-life at 1 h, 1 µM in data set [1] was determined as 6.83 min; in data set [2] (setting [4]), 9.87 min. Besides, in data set [2], the “Microsome Stability Mouse liver microsomes % Remaining @60 min” value stood at 1.60%.

Regarding `Nc1cccc2c1CCCC2NC(=O)c1ccc(C(F)(F)F)[nH]c1=O` (centres unmarked) [Compound 533, N-(5-amino-1,2,3,4-tetrahydronaphthalen-1-yl)-2-oxo-6-(trifluoromethyl)-1,2-dihydropyridine-3-carboxamide], the results for the IC50 at HSD17B13, at HSD17B1 and on HSD17B2 were 0.68 µM, above 30 µM and 72.7 µM, respectively. Besides, in data set [1], the “Microsome Stability Human liver microsomes % Remaining @60 min” value is on record as 88.90%. In addition, the microsomal CLint at 1 μM in data set [1] and in data set [2] (setting [3]) was below 9.6 µL/min/mg throughout. For the same compound, the half-life at 1 μM in data set [1] and in data set [2] (setting [4]) was above 145 min each time. Besides, the “Microsome Stability Mouse liver microsomes % Remaining @60 min” value in data set [2] stood at 90.20%.
